From ChEMBL document CHEMBL1201862, “PubChem BioAssay data set” (2004) come the findings set out here.

Among the test systems are 786-0; A549; HCC 2998; HL-60; HT-29; KM12; Malme-3M; OVCAR-4; OVCAR-8; RPMI-8226; SK-OV-3; SW-620; UACC-62; UO-31; Hs-578T; OVCAR-3; RXF 393; SF-268; BT-549.
What all share (assay): NCI-60 cell line screen, 48 h

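96-well plates; 48 h exposure; 5 concentrations. Endpoints by linear interpolation between flanking doses. Not reached: highest tested concentration assigned. Here, GI50 denotes the concentration required for 50% inhibition of growth.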 The source made the active and inactive calls. Rule as the data show it: active = GI50 up to about 1.1 µM and inactive = higher. Some results are limits rather than exact numbers.

Consider `Oc1cc(-c2ccc3c(c2)OCO3)nc2cc3c(cc12)OCO3`, for which the GI50 with 786-0 was 34.9 µM (inactive); in the experiment with A549, 42.9 µM (inactive); in the experiment with HCC 2998, 31.4 µM (inactive); in the experiment with HL-60 it was 24.5 µM (inactive); in the experiment on HT-29 it was 37.8 µM (inactive); with KM12 it was 36.1 µM (inactive). Moreover, the GI50 is 21.2 µM (inactive) in the experiment on Malme-3M; > 100 µM (inactive) in the experiment with OVCAR-4; 25.7 µM (inactive) with OVCAR-8; 37.5 µM (inactive) in the experiment on RPMI-8226; 30.9 µM (inactive) in the experiment on SK-OV-3; 35.8 µM (inactive) in the experiment on SW-620. In addition, the figures for the GI50 in the experiment with UACC-62 and in the experiment with UO-31 were 36.9 µM (inactive) and > 100 µM (inactive), respectively.
Take `CCNC(=S)N/N=C/c1cc(OC)ccc1O`: the GI50 in the experiment with 786-0 is 67.1 µM (inactive); in the experiment on A549, 52.8 µM (inactive); in the experiment on HCC 2998, > 100 µM (inactive); with HL-60, > 100 µM (inactive); in the experiment on HT-29 it was > 100 µM (inactive); in the experiment with Hs-578T it was > 100 µM (inactive). Also, the GI50 in the experiment on KM12 was 88.1 µM (inactive); in the experiment on Malme-3M, > 100 µM (inactive); in the experiment on OVCAR-3, 6.38 µM (inactive); in the experiment on OVCAR-4, 33.7 µM (inactive); in the experiment on OVCAR-8 it was > 100 µM (inactive); with RXF 393 it was > 100 µM (inactive). Moreover, the GI50 in the experiment with SF-268 is 8.43 µM (inactive); in the experiment on SK-OV-3 it was > 100 µM (inactive); with SW-620, > 100 µM (inactive); in the experiment on UACC-62, 99.1 µM (inactive); in the experiment with UO-31, 7.01 µM (inactive).
For `COc1ccccc1NC(=S)N/N=C(/C)c1ccccn1`, the GI50 is < 0.0123 µM (active) in the experiment with 786-0; < 0.0274 µM (active) with A549; 7 µM (inactive) in the experiment with HCC 2998; < 0.01 µM (active) with HL-60; < 0.01 µM (active) in the experiment with HT-29; > 37.5 µM (inactive) in the experiment with Hs-578T. Besides, the GI50 is 0.117 µM (active) with KM12; 0.0789 µM (active) in the experiment with Malme-3M; < 0.01 µM (active) in the experiment on OVCAR-3; 0.184 µM (active) with OVCAR-4; 0.0112 µM (active) with OVCAR-8; < 0.01 µM (active) in the experiment with RPMI-8226. For the same molecule, the GI50 is 0.658 µM (active) in the experiment on RXF 393; < 0.0124 µM (active) with SF-268; < 0.0213 µM (active) in the experiment on SK-OV-3; < 0.01 µM (active) in the experiment on SW-620; 0.238 µM (active) in the experiment with UACC-62; 1.37 µM (inactive) in the experiment on UO-31.
Turning to `CCN(CC)CC(C(=O)Nc1c(C)cccc1C)/C(C)=N\NC(=O)c1ccncc1` (configuration not stated), the GI50 in the experiment on 786-0, with A549, with HCC 2998, with HT-29, with KM12 and in the experiment with Malme-3M was > 100 µM (inactive) in each case. Moreover, the GI50 in the experiment on OVCAR-3, with OVCAR-4, in the experiment with OVCAR-8, with RXF 393, in the experiment on SF-268 and in the experiment on SK-OV-3 was > 100 µM (inactive) each time. In addition, the GI50 in the experiment with UO-31 is > 100 µM (inactive).
Turning to `COC(CO[Si](C)(C)N[Si](C)(C)OCC(OC)c1ccccc1)c1ccccc1` (configuration not stated), the GI50 in the experiment with 786-0, in the experiment on A549, in the experiment with BT-549, with HCC 2998, in the experiment with HL-60 and in the experiment on KM12 was > 100 µM (inactive) in each case. In addition, the GI50 in the experiment on OVCAR-3, in the experiment with OVCAR-4, in the experiment with OVCAR-8, with RPMI-8226, in the experiment with RXF 393 and in the experiment on SK-OV-3 was > 100 µM (inactive) throughout. For the same molecule, the GI50 in the experiment with SW-620, in the experiment with UACC-62 and with UO-31 was > 100 µM (inactive) each time.
Regarding `CNC(=O)O/N=C1\N(C)CN(c2ccccc2)C12CCN(CCCC(=O)c1ccc(F)cc1)CC2`, the GI50 in the experiment on 786-0 was 75.5 µM (inactive); with A549, 81.3 µM (inactive); in the experiment with HCC 2998, 43 µM (inactive); in the experiment with HL-60, 82 µM (inactive); with HT-29 it was 29.1 µM (inactive); in the experiment with Hs-578T, > 100 µM (inactive). For the same molecule, the GI50 in the experiment on KM12 was 27.7 µM (inactive); with Malme-3M, 32.7 µM (inactive); in the experiment on OVCAR-3, 55.1 µM (inactive); in the experiment with OVCAR-4, 27.6 µM (inactive); with OVCAR-8, > 100 µM (inactive); with RPMI-8226 it was > 100 µM (inactive). In addition, the GI50 in the experiment on RXF 393 was 83.6 µM (inactive); with SF-268, > 100 µM (inactive); with SK-OV-3 it was > 100 µM (inactive); with SW-620 it was > 100 µM (inactive); with UACC-62, > 100 µM (inactive); with UO-31, 90.8 µM (inactive).
Regarding `CC1(C)OCC(C2OC(OC(=O)c3ccc([N+](=O)[O-])cc3)C3OC(C)(C)OC23)O1` (configuration not stated), the GI50 is 51.8 µM (inactive) in the experiment on 786-0; > 100 µM (inactive) in the experiment on A549; > 100 µM (inactive) in the experiment on BT-549; > 100 µM (inactive) in the experiment on HCC 2998; > 100 µM (inactive) with HT-29; > 100 µM (inactive) in the experiment on KM12. For the same molecule, the GI50 in the experiment with Malme-3M is > 100 µM (inactive); in the experiment on OVCAR-3, > 100 µM (inactive); in the experiment on OVCAR-4, > 100 µM (inactive); in the experiment with OVCAR-8, > 100 µM (inactive); in the experiment on RPMI-8226, > 100 µM (inactive); in the experiment with RXF 393, 58.1 µM (inactive). Besides, the GI50 was 20.5 µM (inactive) in the experiment on SF-268; > 100 µM (inactive) in the experiment on SK-OV-3; > 100 µM (inactive) in the experiment with SW-620; > 100 µM (inactive) with UACC-62; 66.1 µM (inactive) in the experiment with UO-31.
On to `CCC/C(Cl)=N/OC(NC(=O)OCC)(C(F)(F)F)C(F)(F)F`, for which the GI50 with 786-0 was 17.4 µM (inactive); in the experiment with A549 it was > 100 µM (inactive); in the experiment with HL-60, 17.4 µM (inactive); in the experiment with HT-29 it was 22.4 µM (inactive); with Hs-578T it was 34.5 µM (inactive); with KM12 it was > 100 µM (inactive). Also, the GI50 with Malme-3M was 15.4 µM (inactive); with OVCAR-3 it was 15.8 µM (inactive); with OVCAR-4, 17.6 µM (inactive); in the experiment on OVCAR-8 it was 33.9 µM (inactive); in the experiment with RPMI-8226 it was 23.1 µM (inactive); in the experiment on RXF 393, 19 µM (inactive). Besides, the GI50 was 19.9 µM (inactive) in the experiment on SF-268, 19.8 µM (inactive) in the experiment on SW-620, 48.1 µM (inactive) in the experiment on UACC-62 and 19.6 µM (inactive) in the experiment on UO-31.
For the molecule `Cc1ccc(C(=O)CC(O)(C(F)(F)F)C(F)(F)F)cc1[N+](=O)[O-]`, the GI50 with 786-0 was 12.1 µM (inactive); with A549, 11.1 µM (inactive); in the experiment with HCC 2998 it was 6.9 µM (inactive); with HL-60, 2.12 µM (inactive); in the experiment with HT-29, 1.87 µM (inactive); with Hs-578T it was 9.46 µM (inactive). The GI50 was 2.19 µM (inactive) in the experiment with KM12; 16.3 µM (inactive) in the experiment on Malme-3M; 2.2 µM (inactive) with OVCAR-3; 15.8 µM (inactive) with OVCAR-4; 10.2 µM (inactive) with OVCAR-8; 12.6 µM (inactive) in the experiment with RPMI-8226. In addition, the GI50 with RXF 393 was 13.8 µM (inactive); in the experiment on SF-268, 9.42 µM (inactive); in the experiment on SK-OV-3 it was 18.1 µM (inactive); in the experiment with SW-620, 16.8 µM (inactive); in the experiment on UACC-62 it was 8.55 µM (inactive); in the experiment on UO-31, 5.81 µM (inactive).
Consider `Cc1cccc2c(=O)c3cccc(CC(=O)O)c3oc12`, for which the GI50 in the experiment on 786-0, with A549, in the experiment on HCC 2998, with HL-60, in the experiment with HT-29 and in the experiment on Hs-578T was > 100 µM (inactive) throughout. In addition, the GI50 with KM12, in the experiment with Malme-3M, with OVCAR-3, with OVCAR-4, in the experiment with OVCAR-8 and with RPMI-8226 was > 100 µM (inactive) each time. Further, the GI50 in the experiment on SF-268, in the experiment with SK-OV-3, in the experiment on SW-620, with UACC-62 and with UO-31 was > 100 µM (inactive) in each case.
In the case of `CCOC(=O)/C(C)=C(/O)C(=O)OCC`, the GI50 in the experiment on 786-0, in the experiment with A549, with HCC 2998, in the experiment with HL-60, in the experiment on HT-29 and in the experiment with KM12 was > 100 µM (inactive) in each case. The GI50 in the experiment with Malme-3M, in the experiment with OVCAR-3, in the experiment with OVCAR-4, in the experiment with OVCAR-8, with RPMI-8226 and in the experiment with RXF 393 was > 100 µM (inactive) in each case. The GI50 with SF-268, with SK-OV-3, in the experiment on SW-620, in the experiment on UACC-62 and in the experiment with UO-31 was > 100 µM (inactive) throughout.
For `O=[N+]([O-])c1ccc(-c2nnc(C34CC5CC(CC(C5)C3)C4)o2)cc1`, the GI50 in the experiment with 786-0, in the experiment with A549, in the experiment on HCC 2998, in the experiment with HL-60, in the experiment with HT-29 and in the experiment on Hs-578T was > 100 µM (inactive) each time. For the same molecule, the GI50 with KM12, with Malme-3M, in the experiment with OVCAR-3, in the experiment with OVCAR-4, in the experiment with RPMI-8226 and in the experiment with RXF 393 was > 100 µM (inactive) in each case. Besides, the GI50 in the experiment with SF-268, with SK-OV-3, with SW-620, in the experiment with UACC-62 and in the experiment with UO-31 was > 100 µM (inactive) throughout.
